# Laboratory results: patent US20060165715A1, “Gp41 inhibitor” (priority 2001, published 2006)
# B1: 6H-N34CCG, disulfide-linked trimer (designed binder)
# chain: MGSSHHHHHHSSGLVPRGSHMSGIVQQQNNLLRAIEAQQHLLQLTVWGIKQCCGR
# Tests used:
# [1] = tested on: HIV Env-mediated cell fusion; assay: vaccinia virus-based reporter gene assay of HIV Env-mediated cell fusion (B-SC-1 target and effector cells, soluble CD4); set-up: species or system HIV-1; conditions: relative to both N35CCG-N13 and NCCG-gp41
# [2] = molecular target: HIV-1 (LAV) Env protein on effector cells (gp120/gp41; gp41 pre-hairpin fusion intermediate) (HIV-1 (LAV)) (UniProt P03377); assay: cell-based or functional assay
# HIV-1 Env = conditions: from Ferrer et al., Nature Struct. Biol. 1999, given for comparison; read-out: IC50, fusion inhibitory activity; cited from earlier work
# [3] = molecular target: HIV-1 (LAV) Env protein on effector cells (gp120/gp41; gp41 pre-hairpin fusion intermediate) (HIV-1 (LAV), UniProt P03377 517-861); assay: cell-based or functional assay
molecule,measurement,setting,value
N34CCG (MGSSHHHHHHSSGLVPRGSHMSGIVQQQNNLLRAIEAQQHLLQLTVWGIKQCCGR),fold lower inhibitory activity,[1],5-6 fold
N36 peptide (residues 546-581 of HIV-1 Env) (from UniProt P04578 546-581),"IC50, inhibition of HIV-1 Env-mediated cell fusion (vaccinia reporter gene assay, beta-galactosidase)",[2],16400 nM
enfuvirtide,IC50,HIV-1 Env,~50 nM
B1,"IC50, inhibition of HIV Env-mediated cell fusion (vaccinia reporter gene assay, beta-galactosidase)",[3],96 nM
